Test results reported in patent publication US7256201B2, “Selective estrogen receptor-β ligands” (AstraZeneca AB, priority 2000, dated 2007).
pEC50, pKi: −log10 of the molar value.

Experiments:
human recombinant ERβ = biological target: T1, human recombinant ERβ (Homo sapiens, UniProt Q92731); experiment: Fluorescence polarization estrogen receptor (ERFP) binding assay, ERβ; settings: for pKi: competition with Fluormone ES2, IC50 converted to Ki by Kenakin formula, read-out: FP β-ER Ki; for FP Selectivity: ratio α-ER Ki / β-ER Ki
T1 construct: purchased PanVera (Madison, Wis.)
T1 sequence (Q92731 whole entry): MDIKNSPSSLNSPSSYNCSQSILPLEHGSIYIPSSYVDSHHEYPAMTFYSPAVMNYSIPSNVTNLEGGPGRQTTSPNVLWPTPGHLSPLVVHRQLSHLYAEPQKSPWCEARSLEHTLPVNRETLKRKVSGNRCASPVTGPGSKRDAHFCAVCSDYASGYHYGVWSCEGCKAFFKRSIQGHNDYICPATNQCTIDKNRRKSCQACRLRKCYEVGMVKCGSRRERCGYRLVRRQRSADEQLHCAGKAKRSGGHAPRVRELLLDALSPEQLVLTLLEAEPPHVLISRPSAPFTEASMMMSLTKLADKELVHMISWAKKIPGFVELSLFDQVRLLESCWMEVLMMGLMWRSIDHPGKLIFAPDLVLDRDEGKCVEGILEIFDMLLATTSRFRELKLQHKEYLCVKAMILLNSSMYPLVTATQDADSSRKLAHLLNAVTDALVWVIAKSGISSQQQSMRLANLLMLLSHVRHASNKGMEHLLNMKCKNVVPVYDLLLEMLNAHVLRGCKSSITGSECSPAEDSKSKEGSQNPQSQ
Method: (§1) A homogeneous mix-and-measure estrogen receptor (ER) binding assay which utilizes fluorescence polarization (FP) technology is used to identify compounds with affinity for the estrogen receptor. Purchased from PanVera (Madison, Wis.), assay reagents include purified human recombinant ERα, human recombinant ERβ, ES2 screening buffer (100 mM potassium phosphate, pH 7.4, 100 μg/mL bovine gamma globulin), and Fluormone™ ES2.
(§2) For competition binding experiments, dilutions of test compounds are prepared at 2× the final assay concentration in 0.2% DMSO in ES2 Screening buffer on TECAN Genosys, and 25 μL compound/well is dispensed into black Costar ½ volume 96-well plates. Dependent upon a lot specific Kd determination, 10-40 nM ERα or 10-40 nM ERβ and 1 nM Fluormone ES2 are then added to these plates in a final assay volume of 50 μL/well. Plates are gently shaken for at least 5 minutes to mix and incubated for at least 1 hr 45 minutes to achieve equilibrium. (Reaction mixtures are stable for up to 5 hours). After centrifugation to remove air bubbles, plates are read on an LJL Analyst or Acquest equipped with Criterion software at the following settings: Fluorescence Polarization Mode; Static Polarizer on Excitation Side; Dynamic Polarizer on Emission Side; Excitation λ=485×/−5 10 nm; Emission λ=520+/−12.5 nm.
(§3) Polarized fluorescence intensity values are collected and subsequently converted electronically to millipolarization (mp) values. Following data reduction and normalization with Excel and/or Prism software, % Ctrl values at the various test concentrations are used to obtain IC50 values via non-linear regression analysis of a four-parameter logistic equation.
(§4) Because ligand depletion is a consideration in this assay (˜40-60% input ES2 is bound in the assay), IC50 values are converted to Ki values through application of the Kenakin formula, as outlined in the reference below, rather than via the more routinely-used Cheng-Prusoff formula.

human recombinant ERα = biological target: T2, human recombinant ERα (Homo sapiens, UniProt P03372); experiment: Fluorescence polarization estrogen receptor (ERFP) binding assay, ERα; settings: competition with Fluormone ES2; IC50 converted to Ki by Kenakin formula; read-out: FP α-ER Ki
T2 construct: purchased PanVera (Madison, Wis.)
T2 sequence (P03372 1-595): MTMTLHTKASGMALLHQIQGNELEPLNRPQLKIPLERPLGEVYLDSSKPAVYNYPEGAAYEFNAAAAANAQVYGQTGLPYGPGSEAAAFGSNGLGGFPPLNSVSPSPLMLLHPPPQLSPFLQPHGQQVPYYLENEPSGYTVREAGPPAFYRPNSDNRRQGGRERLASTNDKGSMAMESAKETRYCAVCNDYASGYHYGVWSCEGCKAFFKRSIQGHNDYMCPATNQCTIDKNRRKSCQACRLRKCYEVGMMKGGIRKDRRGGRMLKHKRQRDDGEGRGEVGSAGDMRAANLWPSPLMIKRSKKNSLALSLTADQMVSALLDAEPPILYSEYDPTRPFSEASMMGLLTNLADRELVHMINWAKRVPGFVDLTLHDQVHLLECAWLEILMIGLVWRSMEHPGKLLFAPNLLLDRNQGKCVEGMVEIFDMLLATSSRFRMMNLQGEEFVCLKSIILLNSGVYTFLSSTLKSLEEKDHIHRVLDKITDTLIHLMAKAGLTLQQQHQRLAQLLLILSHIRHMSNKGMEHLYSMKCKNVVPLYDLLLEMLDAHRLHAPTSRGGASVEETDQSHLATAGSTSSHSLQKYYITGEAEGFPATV
Method: as §1, §2, §3, §4

βER = biological target: T3, βER (Homo sapiens, UniProt Q92731); experiment: Cell-based assay for ER transcriptional activity (ERE β-gal reporter), βER-transfected 293 cells; settings: for pEC50 / ERE β-ER Max: 293 cells transfected with βER and ERE reporter; for ERE β-ER Max: maximal response, unit assumed; for ERE Selectivity: ratio α-ER EC50 / β-ER EC50
T3 construct: expressed in transfected cells; host or cells: 293 cells (Human Embryonic Kidney, ATCC CRL-1573)
T3 sequence (Q92731 54-530 limits assumed): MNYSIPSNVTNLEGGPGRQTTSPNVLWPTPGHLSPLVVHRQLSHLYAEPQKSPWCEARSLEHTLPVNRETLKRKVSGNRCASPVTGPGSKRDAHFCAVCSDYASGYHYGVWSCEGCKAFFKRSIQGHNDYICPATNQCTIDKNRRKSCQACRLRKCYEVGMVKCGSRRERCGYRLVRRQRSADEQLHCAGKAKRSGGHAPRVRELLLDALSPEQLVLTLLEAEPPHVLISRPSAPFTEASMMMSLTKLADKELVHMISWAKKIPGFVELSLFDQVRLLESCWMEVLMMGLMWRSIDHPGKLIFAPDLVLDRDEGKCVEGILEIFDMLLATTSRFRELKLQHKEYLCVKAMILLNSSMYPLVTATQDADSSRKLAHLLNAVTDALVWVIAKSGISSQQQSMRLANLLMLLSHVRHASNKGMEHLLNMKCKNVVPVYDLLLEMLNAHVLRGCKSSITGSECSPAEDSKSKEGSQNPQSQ
Method: (§5) ERs are ligand-dependent transcription factors that bind the promoter regions of genes at a consensus DNA sequence called the estrogen responsive element (ERE). The ER agonist or antagonist activity of a drug was determined by measuring the amount of reporter enzyme activity expressed from a plasmid under the control of an estrogen-responsive element when cells transiently transfected with ER and the reporter plasmid were exposed to drug. These experiments were conducted according to the following methods.
(§6) Estrogen Receptors alpha (αER, Gen Bank accession #M12674), and beta (βER, Gen Bank #X99101 were cloned into the expression vector pSG5 (Stratagene). A trimer of the vitellogenin-gene estrogen response element (vitERE) was synthesized as an oligonucleotide and attached to a beta-globin basal promoter in a construct named pERE3 gal. This response element and promoter were removed from pERE3 gal by digestion with the endonucleases SpeI (filled with Klenow fragment) and HindIII. This blunt/Hind III fragment was cloned into the β-galactosidase (β-gal) enhancer reporter plasmid (pBGALenh, Stratagene). αER and βER plasmids were purified using a the Endo Free Maxi Kit (Qiagen), and the DNA concentration and purity (A260/280 ratio) were determined spectrophotometrically (Pharmacia). Only DNA with A260/280 ratio of 1.8 and a concentration of >1 ug/uL was used for transfections.
(§7) All Transfections are performed in 293 cells (Human Embryonic Kidney cells ATCC #CRL-1573). Cells are grown in DMEM supplemented with 10% FBS, glutamine, sodium pyruvate and penicilin/streptomycin. Cells are grown to 70% confluency and split 1:4.
(§8) • 1. 293 cells are split the night before onto collagen I-coated 150 mm tissue-culture plates (Biocoat, Becton Dickinson #354551) at a density of 60-70% in DMEM Mediatech 17-205-CV) 10% charcoal-stripped FBS (biocell #6201-31). Approximately 1×10^7 cells/plate will yield 70% confluency. • 2. The next morning, 1 hour prior to transfection, the media is changed to fresh DMEM 10% FBS stripped and supplements. • 3. Transfections are performed using the Profection Kit (Promega #E1200). This kit is based on the calcium-phosphate-mediated transfection technique. Reagents are added in sterile polystyrene tubes in the following order:
(§9) Solution A • 15 μg αER or βER • 45 μg Reporter (pBGALenh or ERE3) • 1.5 mL Sterile Water • 186 μL CaCl2 • *Mix gently
(§10) Solution B • 1.5 mL 2× Hank's Buffered Salt Solution • 4. Using a vortex set on low, add solution A to solution B dropwise. The resulting solution should become milky in color. It is important to achieve thorough mixing. The solution is allowed to settle for 30 minutes, then vortexed before adding the solution to cells. • 5. Add the mixture to 150 mm plates dropwise. Mix well by rocking plates back and forth and side to side gently. After an hour, a very fine precipitate should be seen floating on and above cells under 20× magnification. If this precipitate is not observed, the transfection will not be effective. Incubate the cells for 12 hours. Receptor Stimulation: • 1. The day after transfection, cells are washed 2× with calcium- and magnesium-free Mg free PBS containing 1 mM EGTA (pH 7.6). Cells are trypsinized for 2 min with 3 mL of trypsin-EDTA. Trypsin is neutralized with DMEM 10% FCS. Cells are pelleted at 1000×g for 5 min. The cell pellet is then resuspended in 5 mL DMEM plus 2% phenol-red-free FCS supplemented with glutamine, pyruvate, and Penn/Strep. • 2. 50 μl of the resulting cell suspension is plated into each well of 96-well tissue culture dishes (Biocoat B&D #354407) using a multi-channel pipettor. The dishes have been previously loaded with 50 μL of DMSO-solubilized test compounds at twice the test concentration in DMEM. Data reported are either n=4 wells (single poke) and n=2 wells (9-point concentration-response curves). • 3. Cells are incubated overnight at 37° C. in the selected compounds. Reporter Assay: • 1. […]

αER = biological target: T4, αER (Homo sapiens, UniProt P03372); experiment: Cell-based assay for ER transcriptional activity (ERE β-gal reporter), αER-transfected 293 cells; settings: 293 cells transfected with αER and ERE reporter; for ERE α-ER Max: maximal response, unit assumed; for pEC50: read-out: ERE α-ER EC50
T4 construct: expressed in transfected cells; host or cells: 293 cells (Human Embryonic Kidney, ATCC CRL-1573)
T4 sequence (P03372 1-595): T2 sequence (P03372 1-595)
Method: as §5, §6, §7, §8, §9, §10

Compound	pKi (human recombinant ERβ)	FP Selectivity (human recombinant ERβ)	pKi (human recombinant ERα)	pEC50 (βER)	ERE β-ER Max (βER)	ERE Selectivity (βER)	ERE α-ER Max (αER)	pEC50 (αER)
O=C(c1ccc(O)cc1)N1CCc2ccc(O)cc2C1 [Example 24, (7-Hydroxy-3,4-dihydro-1H-isoquinolin-2-yl)-(4-hydroxy-phenyl)-methanone]	6.67	3.1	6.18	–	–	–	–	–
CCC1c2ccc(O)cc2CCN1c1ccc(O)c(Cl)c1 (centres unmarked) [Example 19, 2-(3-Chloro-4-hydroxy-phenyl)-1-ethyl-1,2,3,4-tetrahydro-isoquinolin-6-ol]	7.61	3.0	7.14	6.68	41%	0.1	66%	7.77
Oc1ccc(N2CCc3cc(O)ccc3C2Cc2ccccc2)cc1 (centres unmarked) [Example 16, 1-Benzyl-2-(4-hydroxy-phenyl)-1,2,3,4-tetrahydro-isoquinolin-6-ol]	7.74	0.8	7.82	–	–	–	–	–
Oc1ccc2c(c1)CCN(c1ccc(Cl)cc1Cl)C2 [Example 13, 2-(2,4-Dichloro-phenyl)-1,2,3,4-tetrahydro-isoquinolin-6-ol]	7.49	1.8	7.26	–	69%	–	89%	–
Oc1ccc(N2CCc3cc(O)ccc3C2)c(Cl)c1 [Example 2, 2-(2-Chloro-4hydroxyphenyl)-1,2,3,4-tetrahydroisoquinoline-6-ol]	7.74	2.7	7.32	–	–	–	–	–
Cc1ccccc1C1c2ccc(O)cc2CCN1c1ccc(O)cc1 (centres unmarked) [Example 12, 2-(4-Hydroxyphenyl)-1-o-tolyl-1,2,3,4-tetrahydroisoquinolin-6-ol]	8.10	2.2	7.80	–	71%	–	113%	–
CCC1c2ccc(O)cc2CCN1c1ccc(O)cc1 (centres unmarked) [Example 15, 1-Ethyl-2-(4-hydroxy-phenyl)-1,2,3,4-tetrahydro-isoquinolin-6-ol]	7.74	3.3	7.23	7.64	51%	43	37%	6.00
COc1ccc([N+](=O)[O-])cc1N1CCc2cc(O)ccc2C1 [Example 4, 2-(2-Methoxy-5-nitrophenyl)-1,2,3,4-tetrahydroisoquinolin-6-ol]	6.34	1.4	6.18	–	–	–	–	–
CCc1ccc(C2c3ccc(O)cc3CCN2c2ccc(O)cc2)cc1 (centres unmarked) [Example 11, 1-(4-Ethylphenyl)-2-(4-hydroxyphenyl)-1,2,3,4-tetrahydroisoquinolin-6-ol]	8.05	1.1	8.00	–	–	–	–	–
Oc1ccc(N2CCc3cc(O)ccc3C2)cc1 [Example 1, 2-(4-Hydroxyphenyl)-1,2,3,4-tetrahydroisoquinoline-6-ol]	6.43	2.7	6.00	–	–	–	–	–
Cc1ccc(N2CCc3cc(O)ccc3C2c2cccs2)cc1O (centres unmarked) [Example 22, 2-(3-Hydroxy-4-methyl-phenyl)-1-thiophen-2-yl-1,2,3,4-tetrahydro-isoquinolin-6-ol]	8.46	3.5	7.92	–	–	–	–	–
O=C(c1ccc(O)cc1)N1CCc2cc(O)ccc2C1 [Example 23, (6-Hydroxy-3,4-dihydro-1H-isoquinolin-2-yl)-(4-hydroxy-phenyl)-methanone]	6.64	2.9	6.18	–	–	–	–	–
Oc1ccc(N2CCc3cc(O)ccc3C2c2ccc(C(F)(F)F)cc2)cc1 (centres unmarked) [Example 9, 2-(4-Hydroxyphenyl)-1-(4-trifluoromethylphenyl)-1,2,3,4-tetrahydroisoquinolin-6-ol]	8.31	1.6	8.10	–	–	–	–	–
Cc1ccc(C2c3ccc(O)cc3CCN2c2ccc(O)cc2)c(C)c1 (centres unmarked) [Example 7, 1-(2,4-Dimethylphenyl)-2-(4-hydroxyphenyl)-1,2,3,4-tetrahydroisoquinolin-6-ol]	7.46	1.8	7.21	–	–	–	–	–
CSc1ccc(C2c3ccc(O)cc3CCN2c2ccc(O)cc2)cc1 (centres unmarked) [Example 8, 2-(4-Hydroxyphenyl)-1-(4-methylsulfanylphenyl)-1,2,3,4-tetrahydroisoquinolin-6-ol]	7.41	0.5	7.74	–	–	–	–	–
O=[N+]([O-])c1cc(O)ccc1N1CCc2cc(O)ccc2C1 [Example 5, 2-(4-Hydroxy-2-nitrophenyl)-1,2,3,4-tetrahydroisoquinolin-6-ol]	7.89	4.8	7.21	–	–	–	–	–
